# ChEMBL document CHEMBL1201862, “PubChem BioAssay data set” (2004)
# Calls of active or inactive are those of the source.
# Assays:
# INS1 = test: beta cell apoptosis inhibitors, cytokine rescue, dose response, luminescence, retest (AID 449756); assay type: functional, cell-based; details: Rattus norvegicus;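 note: cell death triggered by IL-1 beta plus TNF-alpha plus IFN-gamma mixture; protective hits raise ATP signal compared with cytokine alone wells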
# Vero = test: cells; assay type: functional; details: Chlorocebus sabaeus
# [1] = growth suppression of PTEN-null colon cells, dose response, cell-based, HCT116 PTEN knockout (AID 1047); assay type: functional;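 note: HCT116 colon tumor cells with PTEN knocked out; cells exposed to compound for 60 hours before readout; potency for loss of cell viability measured by luminescence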
# [2] = growth suppression of beta-catenin-knockout colon cells, dose response, cell-based, HCT116, human colon tumor (AID 1045); assay type: functional;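 note: HCT116 colon tumor cells with beta catenin knocked out; cells exposed to compound for 60 hours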
# CHO-K1 = test: Counterscreen for antagonists of the orexin 1 receptor (OX1R; HCRTR1): Homogeneous time resolved fluorescence (HTRF)-based cell-based dose response assay to identify antagonists of the parental CHO-K1 cell line. [Related pubchem assays (depositor defined):AID434989, AID435008, AID463079, AID485270, AID492963, AID492964, AID492965, AID493232, AID504699, AID504701]; assay type: functional; details: Cricetulus griseus;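 note: potency for inhibition of ATP-stimulated IP1 production as antagonists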
# [3] = biological target: T1, Orexin/Hypocretin receptor type 1 (Homo sapiens, UniProt O43613); test: Fluorescence-based cell-based high throughput dose response assay for antagonists of the orexin 1 receptor (OX1R; HCRTR1). [Related pubchem assays (depositor defined):AID434989, AID435008, AID463079, AID485270, AID492963, AID492964, AID492965, AID493232, AID504717, AID504718]; assay type: functional
# T1 sequence (O43613 whole entry): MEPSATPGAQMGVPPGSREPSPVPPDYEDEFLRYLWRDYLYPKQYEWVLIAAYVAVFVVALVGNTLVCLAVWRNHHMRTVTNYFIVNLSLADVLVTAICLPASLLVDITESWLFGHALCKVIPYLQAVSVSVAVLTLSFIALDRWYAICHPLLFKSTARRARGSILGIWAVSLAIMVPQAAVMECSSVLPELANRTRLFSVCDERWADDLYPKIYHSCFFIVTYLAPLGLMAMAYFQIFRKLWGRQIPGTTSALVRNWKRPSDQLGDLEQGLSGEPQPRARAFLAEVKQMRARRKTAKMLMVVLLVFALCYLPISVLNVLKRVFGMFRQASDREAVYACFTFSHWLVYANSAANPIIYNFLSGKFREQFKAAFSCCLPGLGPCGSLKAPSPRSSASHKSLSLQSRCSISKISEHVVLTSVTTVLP
# Orexin receptor type 2 [4] = biological target: T2, Orexin receptor type 2 (Homo sapiens, UniProt O43614); test: Counterscreen assay for antagonists of the orexin 1 receptor (OX1R; HCRTR1): Homogeneous Time Resolved Fluorescence (HTRF)-based cell-based dose response assay for antagonists of the orexin 2 receptor (OX2R; HCRTR2), run by assay provider.; assay type: functional
# T2 sequence (O43614 whole entry): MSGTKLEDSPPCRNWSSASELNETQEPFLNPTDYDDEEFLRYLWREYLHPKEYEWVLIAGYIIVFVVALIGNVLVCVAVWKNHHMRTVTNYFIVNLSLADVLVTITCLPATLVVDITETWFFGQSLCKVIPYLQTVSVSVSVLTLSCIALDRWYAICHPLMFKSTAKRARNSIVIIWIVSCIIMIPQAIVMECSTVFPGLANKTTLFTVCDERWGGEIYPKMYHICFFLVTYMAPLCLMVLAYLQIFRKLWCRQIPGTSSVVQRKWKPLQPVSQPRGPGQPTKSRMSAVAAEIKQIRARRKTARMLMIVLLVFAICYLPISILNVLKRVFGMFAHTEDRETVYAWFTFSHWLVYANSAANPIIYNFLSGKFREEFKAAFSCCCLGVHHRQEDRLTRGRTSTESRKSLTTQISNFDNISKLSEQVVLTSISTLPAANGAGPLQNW
# [5] = biological target: T1, Orexin/Hypocretin receptor type 1; test: Homogeneous Time Resolved Fluorescence (HTRF)-based cell-based high throughput dose response assay for antagonists of the orexin 1 receptor (OX1R; HCRTR1). [Related pubchem assays (depositor defined):AID434989, AID435008, AID463079, AID485270, AID492963, AID492964, AID492965, AID493232, AID504717, AID504718]; assay type: functional
# [6] = Counterscreen for antagonists of the orexin 1 receptor (OX1R; HCRTR1): Fluorescence-based cell-based high throughput dose response assay to identify antagonists of the parental CHO cell line. [Related pubchem assays (depositor defined):AID434989, AID435008, AID463079, AID485270, AID492963, AID492964, AID492965, AID493232, AID504699, AID504701]; assay type: functional
# Orexin receptor type 2 [7] = biological target: T2, Orexin receptor type 2; test: Counterscreen assay for antagonists of the orexin 1 receptor (OX1R; HCRTR1): Fluorescence-based cell-based dose response assay for antagonists of the orexin 2 receptor (OX2R; HCRTR2), run by assay provider.; assay type: functional
# [8] = biological target: T3, Sentrin-specific protease 7 (Homo sapiens, UniProt Q9BQF6); assay type: functional;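 note: Luminescence-based dose-response confirmation of ultra-high-throughput screening hits, measuring inhibition of SENP7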
# T3 sequence (Q9BQF6 whole entry): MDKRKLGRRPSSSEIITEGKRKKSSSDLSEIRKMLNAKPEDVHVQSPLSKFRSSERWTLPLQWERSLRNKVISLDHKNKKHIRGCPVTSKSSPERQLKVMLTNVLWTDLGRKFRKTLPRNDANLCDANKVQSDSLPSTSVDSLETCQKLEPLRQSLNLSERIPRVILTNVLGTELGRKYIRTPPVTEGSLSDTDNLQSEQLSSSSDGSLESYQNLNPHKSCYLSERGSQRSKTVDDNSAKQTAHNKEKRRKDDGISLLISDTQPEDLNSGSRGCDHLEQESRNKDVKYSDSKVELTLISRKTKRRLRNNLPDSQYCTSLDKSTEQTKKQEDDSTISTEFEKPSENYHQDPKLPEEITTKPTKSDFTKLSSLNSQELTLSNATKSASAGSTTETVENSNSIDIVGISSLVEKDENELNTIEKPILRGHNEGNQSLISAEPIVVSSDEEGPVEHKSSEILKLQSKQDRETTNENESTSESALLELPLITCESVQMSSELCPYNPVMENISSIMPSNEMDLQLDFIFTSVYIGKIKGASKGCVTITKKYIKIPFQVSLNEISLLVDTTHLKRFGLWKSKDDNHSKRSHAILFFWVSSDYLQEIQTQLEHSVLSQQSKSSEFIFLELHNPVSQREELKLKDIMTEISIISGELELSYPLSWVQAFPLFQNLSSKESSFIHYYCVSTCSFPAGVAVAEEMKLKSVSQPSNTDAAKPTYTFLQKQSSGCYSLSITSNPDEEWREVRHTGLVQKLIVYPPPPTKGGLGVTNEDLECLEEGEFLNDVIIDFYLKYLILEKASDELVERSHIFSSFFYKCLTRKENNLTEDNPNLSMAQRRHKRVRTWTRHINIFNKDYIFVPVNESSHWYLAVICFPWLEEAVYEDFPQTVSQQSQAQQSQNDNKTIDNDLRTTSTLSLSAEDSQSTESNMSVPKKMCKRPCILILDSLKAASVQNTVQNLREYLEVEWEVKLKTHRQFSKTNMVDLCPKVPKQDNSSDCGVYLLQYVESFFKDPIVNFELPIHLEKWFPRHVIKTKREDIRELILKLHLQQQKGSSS
# [9] = biological target: T4, Sentrin-specific protease 8 (Homo sapiens, UniProt Q96LD8); assay type: functional;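 note: luminescence read-out of SENP8 inhibition, dose-response confirmation following an ultra-high-throughput screen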
# T4 sequence (Q96LD8 whole entry): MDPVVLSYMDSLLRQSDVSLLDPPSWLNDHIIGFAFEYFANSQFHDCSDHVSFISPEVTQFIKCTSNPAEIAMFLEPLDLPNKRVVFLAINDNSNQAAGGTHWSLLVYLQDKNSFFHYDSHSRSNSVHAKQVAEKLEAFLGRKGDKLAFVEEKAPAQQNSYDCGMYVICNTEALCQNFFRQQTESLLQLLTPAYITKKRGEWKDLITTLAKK
# [10] = biological target: T5, Sentrin-specific protease 6 (Homo sapiens, UniProt Q9GZR1); assay type: functional;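 note: Luminescence-based dose-response confirmatory assay of SENP6 inhibition, following up an ultra-high-throughput screen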
# T5 sequence (Q9GZR1 whole entry): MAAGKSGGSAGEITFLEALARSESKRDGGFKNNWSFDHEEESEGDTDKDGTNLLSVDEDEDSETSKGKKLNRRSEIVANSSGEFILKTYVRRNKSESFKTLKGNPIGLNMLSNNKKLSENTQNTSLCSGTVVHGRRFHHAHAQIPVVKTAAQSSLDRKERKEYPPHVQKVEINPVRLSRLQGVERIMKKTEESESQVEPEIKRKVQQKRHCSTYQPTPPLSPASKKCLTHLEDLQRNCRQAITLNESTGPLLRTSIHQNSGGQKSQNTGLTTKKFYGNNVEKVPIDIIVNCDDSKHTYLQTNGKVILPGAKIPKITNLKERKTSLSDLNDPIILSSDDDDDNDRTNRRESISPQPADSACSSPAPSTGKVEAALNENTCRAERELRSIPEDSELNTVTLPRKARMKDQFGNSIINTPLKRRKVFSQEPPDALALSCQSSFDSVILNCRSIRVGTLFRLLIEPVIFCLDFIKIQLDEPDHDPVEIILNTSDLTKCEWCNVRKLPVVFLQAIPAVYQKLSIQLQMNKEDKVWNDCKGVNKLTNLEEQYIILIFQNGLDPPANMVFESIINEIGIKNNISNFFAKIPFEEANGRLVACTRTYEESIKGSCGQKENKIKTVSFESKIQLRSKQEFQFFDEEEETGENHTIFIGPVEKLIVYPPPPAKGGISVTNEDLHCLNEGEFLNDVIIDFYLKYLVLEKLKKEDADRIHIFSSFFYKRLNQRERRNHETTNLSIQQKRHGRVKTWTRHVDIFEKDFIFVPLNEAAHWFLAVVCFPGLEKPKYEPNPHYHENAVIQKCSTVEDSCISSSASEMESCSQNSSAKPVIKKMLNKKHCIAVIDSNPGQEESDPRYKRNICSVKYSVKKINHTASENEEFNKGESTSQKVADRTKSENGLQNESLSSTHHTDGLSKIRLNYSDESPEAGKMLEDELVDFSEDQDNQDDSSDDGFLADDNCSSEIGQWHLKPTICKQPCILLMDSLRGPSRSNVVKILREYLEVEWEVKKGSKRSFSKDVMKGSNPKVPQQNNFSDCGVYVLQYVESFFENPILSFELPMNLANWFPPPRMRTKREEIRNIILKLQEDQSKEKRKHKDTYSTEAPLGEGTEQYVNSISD
# Caspase-3 = biological target: T6, Caspase-3 (Homo sapiens, UniProt P42574); assay type: functional;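 note: Dose-response selectivity test against caspase-3 for candidate inhibitors of sentrin-specific proteases (SENPs)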
# T6 sequence (P42574 whole entry): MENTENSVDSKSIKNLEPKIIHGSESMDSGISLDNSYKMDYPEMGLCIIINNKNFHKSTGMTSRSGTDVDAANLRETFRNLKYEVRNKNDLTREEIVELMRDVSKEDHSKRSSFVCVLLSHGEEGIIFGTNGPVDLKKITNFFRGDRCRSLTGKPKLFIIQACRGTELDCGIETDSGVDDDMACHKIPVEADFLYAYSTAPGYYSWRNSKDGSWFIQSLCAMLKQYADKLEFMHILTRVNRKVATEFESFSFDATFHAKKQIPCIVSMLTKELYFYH
# [11] = biological target: Intestinal-type alkaline phosphatase (Mus musculus, UniProt P24822); test: PubChem AID 488785; assay type: functional
# [12] = biological target: T7, Alkaline phosphatase, tissue-nonspecific isozyme (Homo sapiens, UniProt P05186); test: TNAP enzyme inhibition by screening hits, dose response, selectivity assay for mouse IAP inhibitor project, biochemical, human TNAP, uHTS hits (AID 488906); assay type: functional
# T7 sequence (P05186 whole entry): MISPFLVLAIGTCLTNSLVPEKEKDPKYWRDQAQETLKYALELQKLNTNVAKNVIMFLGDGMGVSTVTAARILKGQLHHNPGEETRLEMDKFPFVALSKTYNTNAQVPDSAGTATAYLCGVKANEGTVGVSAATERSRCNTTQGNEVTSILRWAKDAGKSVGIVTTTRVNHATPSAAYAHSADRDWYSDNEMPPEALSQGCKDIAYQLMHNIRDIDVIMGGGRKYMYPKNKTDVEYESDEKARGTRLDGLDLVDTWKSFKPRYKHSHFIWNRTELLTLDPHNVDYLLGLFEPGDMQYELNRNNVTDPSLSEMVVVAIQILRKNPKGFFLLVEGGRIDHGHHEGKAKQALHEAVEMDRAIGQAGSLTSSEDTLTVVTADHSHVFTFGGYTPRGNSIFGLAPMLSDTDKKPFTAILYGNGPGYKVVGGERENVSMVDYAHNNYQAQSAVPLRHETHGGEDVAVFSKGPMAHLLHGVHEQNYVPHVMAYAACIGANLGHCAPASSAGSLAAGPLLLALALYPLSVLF
# [13] = biological target: Intestinal-type alkaline phosphatase (Homo sapiens, UniProt P09923); test: activation of human intestinal alkaline phosphatase – biochemical, dose response (AID 488873); assay type: functional
# HEK293 [14] = test: NOD2 signaling inhibitors in MDP-stimulated cells, cell-based, uHTS, luminescence (AID 2001); assay type: functional; details: Homo sapiens
# HEK293 [15] = test: NOD1 signaling inhibitors, primary screen, cell-based, luminescence, uHTS (AID 1578); assay type: functional; details: Homo sapiens
# HEK293 [16] = test: cells; assay type: functional, cell-based; details: Homo sapiens
# HEK293 [17] = test: cells; assay type: functional, cell-based; details: Homo sapiens; remark: listed apart in the source
# Chain of Intestinal-type alkaline phosphatase (Mus musculus, UniProt P24822) (P24822 whole entry): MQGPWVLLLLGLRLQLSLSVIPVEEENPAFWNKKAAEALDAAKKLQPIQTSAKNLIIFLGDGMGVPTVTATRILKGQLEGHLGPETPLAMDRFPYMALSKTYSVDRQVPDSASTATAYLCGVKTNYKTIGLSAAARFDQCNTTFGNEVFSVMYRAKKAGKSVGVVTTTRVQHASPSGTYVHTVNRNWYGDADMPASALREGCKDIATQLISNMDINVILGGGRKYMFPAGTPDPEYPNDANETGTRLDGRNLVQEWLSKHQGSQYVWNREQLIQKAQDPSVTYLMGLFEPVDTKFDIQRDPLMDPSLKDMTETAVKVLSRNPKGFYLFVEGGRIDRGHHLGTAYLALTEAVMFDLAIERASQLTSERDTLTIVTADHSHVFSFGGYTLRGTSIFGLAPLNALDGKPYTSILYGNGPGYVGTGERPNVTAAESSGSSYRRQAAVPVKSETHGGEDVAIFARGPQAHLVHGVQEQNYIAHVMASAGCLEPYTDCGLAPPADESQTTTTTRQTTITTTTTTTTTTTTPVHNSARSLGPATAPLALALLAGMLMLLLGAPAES
# Chain of Intestinal-type alkaline phosphatase (Homo sapiens, UniProt P09923) (P09923 whole entry): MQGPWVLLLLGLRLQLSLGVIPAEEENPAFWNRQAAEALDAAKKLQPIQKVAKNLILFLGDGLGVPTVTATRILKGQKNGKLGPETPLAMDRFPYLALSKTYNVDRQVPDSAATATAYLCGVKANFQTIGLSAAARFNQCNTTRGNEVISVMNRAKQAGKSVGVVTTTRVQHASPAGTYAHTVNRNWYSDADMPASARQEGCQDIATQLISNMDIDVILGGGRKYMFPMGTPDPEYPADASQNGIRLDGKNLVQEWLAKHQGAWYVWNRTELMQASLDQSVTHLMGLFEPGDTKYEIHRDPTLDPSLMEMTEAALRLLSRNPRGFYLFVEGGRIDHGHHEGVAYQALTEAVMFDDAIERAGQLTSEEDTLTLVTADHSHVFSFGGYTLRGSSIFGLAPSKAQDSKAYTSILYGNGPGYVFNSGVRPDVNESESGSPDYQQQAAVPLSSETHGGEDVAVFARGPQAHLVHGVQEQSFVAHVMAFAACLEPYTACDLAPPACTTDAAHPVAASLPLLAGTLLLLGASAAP
compound,measurement,setting,value
COc1ccc(NCc2nnc(SCC(=O)Nc3nc(-c4ccccc4)cs3)n2-c2ccccc2)cc1,AC50,INS1,6.62 µM (active)
same,CC50,Vero,8.35 µM (active)
same,EC50,[1],2.78 µM (active)
same,EC50,[2],2.54 µM (active)
Cc1csc(-c2coc3cc(O)cc(C)c3c2=O)n1,IC50,CHO-K1,> 66.2 µM (inactive)
same,IC50,[3],10.4 µM (inactive)
same,IC50,Orexin receptor type 2 [4],> 50 µM (inactive)
same,IC50,[5],2.54 µM (active)
same,IC50,[6],> 49.8 µM (inactive)
same,IC50,Orexin receptor type 2 [7],> 88.8 µM (inactive)
O=C(Nc1ccc2ccccc2c1)c1cccc(F)c1,IC50,[8],4.43 µM (active)
same,IC50,[9],> 100 µM (inactive)
same,IC50,[10],5.72 µM (active)
same,IC50,Caspase-3,18.3 µM (active)
CCCCCC(=O)N1C[C@H](O)[C@@H](n2cc(-c3ccc(F)cc3)nn2)C[C@@H]1c1ccc(Cl)cc1,CC50,Vero,> 25 µM (active)
COc1ccccc1CNC(=O)CCNS(=O)(=O)c1ccc2[nH]c(=O)oc2c1,IC50,[11],11.4 µM (active)
same,IC50,[12],27.5 µM (active)
same,EC50,[13],45.1 µM (active)
COC(=O)c1scc(S(=O)(=O)C(C)C)c1N/N=C(\C#N)C(=O)c1ccc(Cl)cc1,IC50,HEK293 [14],> 20 µM (inactive)
same,EC50,HEK293 [15],2.17 µM (active)
same,IC50,HEK293 [16],> 20 µM (inactive)
same,IC50,HEK293 [17],> 20 µM (inactive)
